Laboratory results taken from ChEMBL document CHEMBL1125187, “3-Thienyl- and 3-furylaminobutyric acids. Synthesis and binding GABAB receptor studies” (J Med Chem, 1991).

Assays:
[1] = molecular target: GABA-A receptor; anion channel; assay: Inhibition of [3H]muscimol binding to gamma-aminobutyric-acid A (GABA-A) receptor; format: protein-complex assay, Rattus norvegicus
GABA B receptor = GABA B receptor (Rattus norvegicus, UniProt O88871+Q9Z0U4); assay: Inhibition of [3H]baclofen binding to rat gamma-aminobutyric acid type B receptor.; format: protein-complex assay
Chain of GABA B receptor (Q9Z0U4 whole entry): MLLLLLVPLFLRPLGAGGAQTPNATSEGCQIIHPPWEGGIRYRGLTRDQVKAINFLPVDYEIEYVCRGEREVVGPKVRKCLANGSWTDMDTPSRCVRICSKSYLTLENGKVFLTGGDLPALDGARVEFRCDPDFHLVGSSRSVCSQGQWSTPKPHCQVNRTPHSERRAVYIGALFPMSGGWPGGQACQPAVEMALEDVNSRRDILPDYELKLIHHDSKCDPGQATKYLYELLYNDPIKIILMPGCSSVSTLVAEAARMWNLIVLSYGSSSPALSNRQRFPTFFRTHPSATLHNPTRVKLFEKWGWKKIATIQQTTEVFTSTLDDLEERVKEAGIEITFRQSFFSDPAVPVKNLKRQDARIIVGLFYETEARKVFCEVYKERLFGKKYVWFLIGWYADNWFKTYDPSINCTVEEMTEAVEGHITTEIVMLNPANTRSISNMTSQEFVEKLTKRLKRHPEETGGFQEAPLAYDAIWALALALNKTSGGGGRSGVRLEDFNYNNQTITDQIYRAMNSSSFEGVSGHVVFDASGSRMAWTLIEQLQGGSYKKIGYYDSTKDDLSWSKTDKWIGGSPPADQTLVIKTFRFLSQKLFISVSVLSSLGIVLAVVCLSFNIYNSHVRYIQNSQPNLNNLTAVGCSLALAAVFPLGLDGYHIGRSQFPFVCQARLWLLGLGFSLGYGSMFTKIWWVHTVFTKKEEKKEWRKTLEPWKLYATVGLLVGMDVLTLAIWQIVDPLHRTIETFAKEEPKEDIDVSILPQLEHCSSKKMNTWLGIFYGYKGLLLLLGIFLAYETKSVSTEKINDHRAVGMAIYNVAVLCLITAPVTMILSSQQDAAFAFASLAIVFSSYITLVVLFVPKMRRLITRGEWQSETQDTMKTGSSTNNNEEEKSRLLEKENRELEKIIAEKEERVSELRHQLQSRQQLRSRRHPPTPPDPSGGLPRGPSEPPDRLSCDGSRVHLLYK
Chain of GABA B receptor (O88871 whole entry): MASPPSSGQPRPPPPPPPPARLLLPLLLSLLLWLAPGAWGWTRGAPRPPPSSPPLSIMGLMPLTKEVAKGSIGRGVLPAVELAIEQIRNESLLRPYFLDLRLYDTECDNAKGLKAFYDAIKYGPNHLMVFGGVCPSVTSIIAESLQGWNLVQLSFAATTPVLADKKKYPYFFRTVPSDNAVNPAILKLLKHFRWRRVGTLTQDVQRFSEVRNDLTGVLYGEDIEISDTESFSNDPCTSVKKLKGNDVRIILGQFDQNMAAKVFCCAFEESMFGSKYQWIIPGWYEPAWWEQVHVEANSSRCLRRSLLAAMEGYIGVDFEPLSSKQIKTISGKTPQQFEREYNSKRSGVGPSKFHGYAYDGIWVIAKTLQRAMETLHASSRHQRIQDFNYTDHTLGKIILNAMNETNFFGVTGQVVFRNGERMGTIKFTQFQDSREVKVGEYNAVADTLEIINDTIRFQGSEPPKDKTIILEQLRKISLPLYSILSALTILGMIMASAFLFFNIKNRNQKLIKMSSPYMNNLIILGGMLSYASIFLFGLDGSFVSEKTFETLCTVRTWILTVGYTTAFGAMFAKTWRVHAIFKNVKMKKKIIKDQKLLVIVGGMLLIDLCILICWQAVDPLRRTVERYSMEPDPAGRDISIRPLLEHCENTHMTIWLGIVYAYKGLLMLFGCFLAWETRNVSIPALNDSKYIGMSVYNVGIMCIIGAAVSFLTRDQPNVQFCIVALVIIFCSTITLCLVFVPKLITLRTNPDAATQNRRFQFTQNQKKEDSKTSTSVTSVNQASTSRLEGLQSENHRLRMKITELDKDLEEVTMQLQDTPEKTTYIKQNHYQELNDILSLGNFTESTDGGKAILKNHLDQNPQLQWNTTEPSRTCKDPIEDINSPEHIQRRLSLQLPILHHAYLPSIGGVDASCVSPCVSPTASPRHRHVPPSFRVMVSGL

| Compound | IC50 [1] [µM] | IC50 (GABA B receptor) [µM] |
| --- | --- | --- |
| NCC(CC(=O)O)c1ccco1 (centres undefined) | > 100 | > 100 |
| Cc1ccsc1C(CN)CC(=O)O (centres undefined) | > 100 | 124 |
| Cc1ccc(C(CN)CC(=O)O)o1 (centres undefined) | > 100 | > 100 |
| NCC(CC(=O)O)c1ccc(O)cc1 (centres undefined) | – | > 100 |
| NCC(CC(=O)O)c1cc(Br)cs1 (centres undefined) | > 100 | 39.1 |
| NCC(CC(=O)O)c1cc(Cl)cs1 (centres undefined) | > 100 | 45.3 |
| NCC(CC(=O)O)c1ccsc1 (centres undefined) | > 100 | 20.9 |
| NCC(CC(=O)O)c1ccc(Br)s1 (centres undefined) | > 100 | 1.86 |
| Cc1ccc(C(CN)CC(=O)O)s1 (centres undefined) | > 100 | 1.34 |
| NCC(CC(=O)O)c1ccccc1Cl (centres undefined) | – | 0.8 |
| NCC(CC(=O)O)c1cccs1 (centres undefined) | > 100 | 9.72 |
| NC[C@H](CC(=O)O)c1ccc(F)cc1 | – | 1.33 |
| NCC(CC(=O)O)c1cccc(Cl)c1 (centres undefined) | – | 20 |
| NCC(CC(=O)O)c1ccc(Cl)s1 (centres undefined) [4-AMINO-3- (5-CHLOROTHIEN-2-YL)BUTANOIC ACID] | > 100 | 0.61 |
